Consider seven compounds from US6605145B1, “Alkylformamide surfactants” (Air Products and Chemicals, Inc., priority 1999, dated 2003).

Common to all, as to format: physicochemical
A short description of series [1]: Dynamic surface tension of aqueous solutions, maximum bubble pressure method. From the text:
where R is a C5 to C11 alkyl group, provided that the organic compound is not an azole derivative fungicide. […] The maximum-bubble-pressure method of measuring surface tension is described in Langmuir 1986, 2, 428-432, which is incorporated by reference.
In the following Examples dynamic surface tension data were obtained for aqueous solutions of various compounds using the maximum bubble pressure method at bubble rates from 0.1 bubbles/second (b/s) to 20 b/s. […] In practical terms, high bubble rates correspond to high printing speeds in lithographic printing, high spray or roller velocities in coating applications, and rapid application rates for agricultural products.

A short description of series [2]: Solubility limit in water from plot of ln(conc.) vs surface tension at 0.1 b/s. From the text:
A plot of In(conc.) vs surface tension observed at 0.1 b/s was used to determine that the solubility limit of this material is 0.1 wt %.

Series [3] is described as follows: Foam test based upon ASTM D 1173-53. The protocol:
The foaming properties of 0.1 wt % solutions of the N-octylpyrrolidone and the alkylformamide surfactants of this invention were examined using a procedure based upon ASTM D 1173-53. In this test, a 0.1 wt % solution of the surfactant is added from an elevated foam pipette to a foam receiver containing the same solution. The foam height is measured at the completion of the addition (“Initial Foam Height”) and the time required for the foam to dissipate at the air-liquid interface (“Time to 0 Foam”) is recorded. This test provides a comparison between the foaming characteristics of various surfactant solutions. In general, in coatings, inks, and agricultural formulations, foam is undesirable because it complicates handling and can lead to coating and print defects, and to inefficient application of agricultural materials.

Molecules are shown by their SMILES.

For `CCCCCCCCCCNC=O` [n-DF, n-decylformamide], the “Dynamic Surface Tension” value in series [1] (0.005 wt % in water, 0.1 b/s) is 53.4 dyne/cm; in series [1] (0.005 wt % in water, 1 b/s) it was 67.1 dyne/cm; in series [1] (0.005 wt % in water, 6 b/s) it was 70.6 dyne/cm; in series [1] (0.005 wt % in water, 15 b/s), 72.5 dyne/cm; in series [1] (0.005 wt % in water, 20 b/s), 73.1 dyne/cm; in series [1] (0.007 wt % in water, 0.1 b/s), 36.3 dyne/cm. In addition, the “Dynamic Surface Tension” value was 59.2 dyne/cm in series [1] (0.007 wt % in water, 1 b/s); 70.3 dyne/cm in series [1] (0.007 wt % in water, 6 b/s); 72.3 dyne/cm in series [1] (0.007 wt % in water, 15 b/s); 72.9 dyne/cm in series [1] (0.007 wt % in water, 20 b/s); 32.4 dyne/cm in series [1] (0.01 wt % in water, 0.1 b/s); 55.4 dyne/cm in series [1] (0.01 wt % in water, 1 b/s). Also, the “Dynamic Surface Tension” value in series [1] (0.01 wt % in water, 6 b/s) came out at 69.1 dyne/cm; in series [1] (0.01 wt % in water, 15 b/s), 72.5 dyne/cm; in series [1] (0.01 wt % in water, 20 b/s), 72.8 dyne/cm. In series [2], this compound returned a solubility limit of 0.01 wt %.

On to `CCCCC(CC)CNC=O` (stereo not shown) [2-EHF, 2-ethylhexylformamide], for which the “Dynamic Surface Tension” value is recorded as 51.1 dyne/cm in series [1] (0.03 wt % in water, 0.1 b/s); 53.0 dyne/cm in series [1] (0.03 wt % in water, 1 b/s); 57.0 dyne/cm in series [1] (0.03 wt % in water, 6 b/s); 60.1 dyne/cm in series [1] (0.03 wt % in water, 15 b/s); 60.3 dyne/cm in series [1] (0.03 wt % in water, 20 b/s); 45.9 dyne/cm in series [1] (0.05 wt % in water, 0.1 b/s). The “Dynamic Surface Tension” value in series [1] (0.05 wt % in water, 1 b/s) amounted to 47.2 dyne/cm; in series [1] (0.05 wt % in water, 6 b/s), 49.9 dyne/cm; in series [1] (0.05 wt % in water, 15 b/s), 52.6 dyne/cm; in series [1] (0.05 wt % in water, 20 b/s) it was 53.3 dyne/cm; in series [1] (0.07 wt % in water, 0.1 b/s) it was 42.8 dyne/cm; in series [1] (0.07 wt % in water, 1 b/s), 43.8 dyne/cm. Moreover, the “Dynamic Surface Tension” value is reported as 46.0 dyne/cm in series [1] (0.07 wt % in water, 6 b/s); 48.3 dyne/cm in series [1] (0.07 wt % in water, 15 b/s); 49.1 dyne/cm in series [1] (0.07 wt % in water, 20 b/s); 39.1 dyne/cm in series [1] (0.1 wt % in water, 0.1 b/s); 39.9 dyne/cm in series [1] (0.1 wt % in water, 1 b/s); 41.6 dyne/cm in series [1] (0.1 wt % in water, 6 b/s). In addition, the “Dynamic Surface Tension” value in series [1] (0.1 wt % in water, 15 b/s) was found to be 43.5 dyne/cm; in series [1] (0.1 wt % in water, 20 b/s) it was 44.2 dyne/cm; in series [1] (0.2 wt % in water, 0.1 b/s) it was 32.1 dyne/cm; in series [1] (0.2 wt % in water, 1 b/s), 32.4 dyne/cm; in series [1] (0.2 wt % in water, 6 b/s) it was 33.3 dyne/cm; in series [1] (0.2 wt % in water, 15 b/s), 34.9 dyne/cm. Moreover, in series [1] (0.2 wt % in water, 20 b/s), the “Dynamic Surface Tension” value is 35.5 dyne/cm. The same compound came in with a solubility limit in series [2] of 0.2 wt %.

As to `CCCCCCCCN1CCCC1=O` [N-n-Octylpyrrolidone, reference compound], the “Dynamic Surface Tension” value in series [1] (0.003 wt % in water, 0.1 b/s) was found to be 65.1 dyne/cm; in series [1] (0.003 wt % in water, 1 b/s), 68.6 dyne/cm; in series [1] (0.003 wt % in water, 6 b/s), 70.8 dyne/cm; in series [1] (0.003 wt % in water, 15 b/s) it was 71.4 dyne/cm; in series [1] (0.003 wt % in water, 20 b/s), 71.1 dyne/cm; in series [1] (0.03 wt % in water, 0.1 b/s), 46.5 dyne/cm. The “Dynamic Surface Tension” value in series [1] (0.03 wt % in water, 1 b/s) came out at 49.3 dyne/cm; in series [1] (0.03 wt % in water, 6 b/s) it was 54.4 dyne/cm; in series [1] (0.03 wt % in water, 15 b/s) it was 58.7 dyne/cm; in series [1] (0.03 wt % in water, 20 b/s) it was 59.6 dyne/cm; in series [1] (0.07 wt % in water, 0.1 b/s), 35.2 dyne/cm; in series [1] (0.07 wt % in water, 1 b/s), 36.6 dyne/cm. Besides, the “Dynamic Surface Tension” value in series [1] (0.07 wt % in water, 6 b/s) is recorded as 39.6 dyne/cm; in series [1] (0.07 wt % in water, 15 b/s), 43.0 dyne/cm; in series [1] (0.07 wt % in water, 20 b/s), 43.9 dyne/cm; in series [1] (0.1 wt % in water, 0.1 b/s), 29.9 dyne/cm; in series [1] (0.1 wt % in water, 1 b/s) it was 31.0 dyne/cm; in series [1] (0.1 wt % in water, 1 b/s, listed as n-octylpyrrolidone), “below 30 dyne/cm”. The “Dynamic Surface Tension” value is on record as 33.4 dyne/cm in series [1] (0.1 wt % in water, 6 b/s); 36.5 dyne/cm in series [1] (0.1 wt % in water, 15 b/s); 37.2 dyne/cm in series [1] (0.1 wt % in water, 20 b/s); “below 40 dyne/cm” in series [1] (0.1 wt % in water, 20 b/s, listed as n-octylpyrrolidone); 27.6 dyne/cm in series [1] (0.21 wt % in water, 0.1 b/s); 27.8 dyne/cm in series [1] (0.21 wt % in water, 1 b/s). Moreover, the “Dynamic Surface Tension” value in series [1] (0.21 wt % in water, 6 b/s) was found to be 28.4 dyne/cm; in series [1] (0.21 wt % in water, 15 b/s) it was 30.0 dyne/cm; in series [1] (0.21 wt % in water, 20 b/s), 30.6 dyne/cm. In addition, in series [3] (0.1 wt % solution), the “Initial Foam Height” value was found to be 4.0 cm. Also, in series [3] (0.1 wt % solution), the “cm Foam after 5 min” value was determined as 1.0 cm. The “foaming of aqueous solutions (in words)” value in series [3] (aqueous solutions) is recorded as “quite foamy”.

Regarding `CCCCCCCCNC=O` [drawing 13, n-octylformamide], in series [3] (0.1 wt % solution), the “Initial Foam Height” value is reported as 0.9 cm and the “Time to 0 Foam” value was 5 s.

On to `CCCCCCCCNC=O` [n-OF, n-octylformamide], for which the “Dynamic Surface Tension” value is 42.8 dyne/cm in series [1] (0.03 wt % in water, 0.1 b/s); 46.1 dyne/cm in series [1] (0.03 wt % in water, 1 b/s); 52.2 dyne/cm in series [1] (0.03 wt % in water, 6 b/s); 58.5 dyne/cm in series [1] (0.03 wt % in water, 15 b/s); 60.4 dyne/cm in series [1] (0.03 wt % in water, 20 b/s); 35.6 dyne/cm in series [1] (0.05 wt % in water, 0.1 b/s). In addition, the “Dynamic Surface Tension” value in series [1] (0.05 wt % in water, 1 b/s) worked out at 37.7 dyne/cm; in series [1] (0.05 wt % in water, 6 b/s), 42.5 dyne/cm; in series [1] (0.05 wt % in water, 15 b/s) it was 48.6 dyne/cm; in series [1] (0.05 wt % in water, 20 b/s) it was 50.5 dyne/cm; in series [1] (0.07 wt % in water, 0.1 b/s), 30.9 dyne/cm; in series [1] (0.07 wt % in water, 1 b/s), 32.5 dyne/cm. Also, the “Dynamic Surface Tension” value was 36.3 dyne/cm in series [1] (0.07 wt % in water, 6 b/s); 41.5 dyne/cm in series [1] (0.07 wt % in water, 15 b/s); 43.7 dyne/cm in series [1] (0.07 wt % in water, 20 b/s); 26.6 dyne/cm in series [1] (0.1 wt % in water, 1 b/s); 28.7 dyne/cm in series [1] (0.1 wt % in water, 6 b/s); 34.4 dyne/cm in series [1] (0.1 wt % in water, 15 b/s). This compound also registered a solubility limit in series [2] of 0.1 wt %.

As to `CCCCC(CC)CNC=O` (stereo not shown) [drawing 14, 2-ethylhexylformamide], in series [3] (0.1 wt % solution), the “Initial Foam Height” value is on record as 0.5 cm and the “Time to 0 Foam” value was 4 s.

As for `CCCCCCCCCCNC=O` [drawing 16, n-decylformamide], in series [3] (0.1 wt % solution), the “Initial Foam Height” value amounted to 2.4 cm and the “Time to 0 Foam” value was determined as 12 s.
